Experiment [1] has as its target PDGF-R (Homo sapiens, UniProt P09619). Kind of experiment: PDGF-R ELISA. It counts as cell-based. From the text: A PDGF-R ELISA is described in International Patent Publication No. WO 96/40116, published December 19, 1996 by Tang et al.
Experiment [2] concerns the target T1, EGFR (Homo sapiens, UniProt P00533).
T1 construct: Add 7 ug A431 cell lysate per well (EGFR source); endogenous in cells; host or cells: A431
Kind of experiment: EGFR ELISA assay (in vitro kinase activity, EGFR captured from A431 cell lysate). It counts as biochemical. Also on record: concentration or dose not given beside the values. Summed up: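 EGFR from A431 lysate was captured on plates coated with anti-EGFR antibody. Compounds were added 30 min before a 5 min phosphorylation with 3 µM ATP/5 mM MnCl2, which was stopped with 20 mM EDTA. Phosphotyrosine was detected with rabbit anti-phosphotyrosine, then a peroxidase-conjugated secondary and ABTS/H2O2, read at 410 nm.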

T1 sequence (P00533 25-1210): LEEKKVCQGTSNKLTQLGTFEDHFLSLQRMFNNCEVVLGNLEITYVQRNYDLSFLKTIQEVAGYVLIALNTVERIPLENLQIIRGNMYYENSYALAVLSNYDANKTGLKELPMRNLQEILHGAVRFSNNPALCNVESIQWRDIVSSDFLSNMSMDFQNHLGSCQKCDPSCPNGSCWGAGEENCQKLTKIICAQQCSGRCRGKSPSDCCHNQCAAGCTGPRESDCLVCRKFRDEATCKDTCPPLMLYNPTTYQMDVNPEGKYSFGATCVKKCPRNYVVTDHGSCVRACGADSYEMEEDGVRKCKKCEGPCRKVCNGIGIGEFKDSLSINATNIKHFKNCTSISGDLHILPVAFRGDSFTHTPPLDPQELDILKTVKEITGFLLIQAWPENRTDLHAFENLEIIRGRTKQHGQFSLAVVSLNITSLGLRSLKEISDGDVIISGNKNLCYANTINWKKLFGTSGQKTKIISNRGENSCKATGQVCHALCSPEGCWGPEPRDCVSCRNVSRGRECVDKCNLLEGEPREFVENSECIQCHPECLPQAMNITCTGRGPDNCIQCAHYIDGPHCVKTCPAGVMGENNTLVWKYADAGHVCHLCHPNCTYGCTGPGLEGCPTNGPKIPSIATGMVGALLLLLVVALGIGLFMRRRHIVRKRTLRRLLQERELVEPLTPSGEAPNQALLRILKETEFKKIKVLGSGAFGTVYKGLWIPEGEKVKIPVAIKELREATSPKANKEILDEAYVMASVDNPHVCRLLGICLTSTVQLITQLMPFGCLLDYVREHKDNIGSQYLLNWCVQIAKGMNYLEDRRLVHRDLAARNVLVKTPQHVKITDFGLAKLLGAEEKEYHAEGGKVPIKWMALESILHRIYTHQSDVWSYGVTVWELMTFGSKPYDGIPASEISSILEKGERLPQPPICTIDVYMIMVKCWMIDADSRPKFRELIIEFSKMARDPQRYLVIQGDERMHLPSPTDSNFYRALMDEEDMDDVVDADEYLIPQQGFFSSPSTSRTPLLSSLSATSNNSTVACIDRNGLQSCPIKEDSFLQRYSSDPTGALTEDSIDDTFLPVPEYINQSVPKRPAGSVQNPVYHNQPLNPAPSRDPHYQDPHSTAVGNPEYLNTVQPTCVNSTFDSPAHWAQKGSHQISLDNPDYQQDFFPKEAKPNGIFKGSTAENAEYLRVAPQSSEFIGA
Sequence of PDGF-R (P09619 33-1106, species assumed): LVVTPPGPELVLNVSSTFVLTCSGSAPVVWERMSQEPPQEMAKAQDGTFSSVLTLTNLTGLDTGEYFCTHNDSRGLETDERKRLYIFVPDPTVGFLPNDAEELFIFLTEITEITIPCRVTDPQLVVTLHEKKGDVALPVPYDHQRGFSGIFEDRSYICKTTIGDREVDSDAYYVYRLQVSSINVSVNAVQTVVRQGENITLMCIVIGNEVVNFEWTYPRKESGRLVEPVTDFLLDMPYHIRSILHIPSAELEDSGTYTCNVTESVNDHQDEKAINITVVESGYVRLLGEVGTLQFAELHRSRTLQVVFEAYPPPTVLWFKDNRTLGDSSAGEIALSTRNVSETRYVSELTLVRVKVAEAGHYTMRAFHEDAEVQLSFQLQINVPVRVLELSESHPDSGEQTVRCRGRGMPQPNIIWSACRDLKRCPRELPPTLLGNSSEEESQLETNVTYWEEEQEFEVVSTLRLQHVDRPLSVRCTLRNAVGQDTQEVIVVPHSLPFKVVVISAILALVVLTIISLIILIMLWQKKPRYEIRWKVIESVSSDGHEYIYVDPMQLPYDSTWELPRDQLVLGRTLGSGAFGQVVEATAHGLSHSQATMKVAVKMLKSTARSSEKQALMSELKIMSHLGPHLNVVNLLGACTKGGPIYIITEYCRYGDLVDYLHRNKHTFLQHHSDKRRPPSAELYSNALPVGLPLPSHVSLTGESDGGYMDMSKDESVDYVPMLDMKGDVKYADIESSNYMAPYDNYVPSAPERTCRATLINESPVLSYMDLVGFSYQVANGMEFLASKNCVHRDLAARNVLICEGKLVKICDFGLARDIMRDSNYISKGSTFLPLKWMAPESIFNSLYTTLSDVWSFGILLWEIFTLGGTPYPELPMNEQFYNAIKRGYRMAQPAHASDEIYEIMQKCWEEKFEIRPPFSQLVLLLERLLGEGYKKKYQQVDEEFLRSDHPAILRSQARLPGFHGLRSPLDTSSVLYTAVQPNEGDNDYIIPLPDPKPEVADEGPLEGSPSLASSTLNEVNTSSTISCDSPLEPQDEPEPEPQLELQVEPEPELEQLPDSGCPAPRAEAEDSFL

In the case of `CC(C)(C)c1cc(C=C2C(=O)Nc3c(Br)cc(Br)cc32)c(O)c(C(C)(C)C)c1` [10723/A11], in experiment [1], the “PDGF Kinase %Inhibition” value is 41.5%. In addition, the “Biochem EGFR %Inhibition” value in experiment [2] is recorded as -4.0%.
The corresponding values for `COc1ccc(C=C2C(=O)Nc3c(Br)cc(Br)cc32)c(O)c1` [10723/A09] are 42.9% and -4.5%.
For `CC(C)(C)c1cc(C=C2C(=O)Nc3ccc(CCCl)cc32)cc(Cl)c1O` [10722/G08] the same measures were 12.9% and -8.5%.
For `O=C1Nc2c(Br)cc(Br)cc2C1=Cc1ccc(O)c(O)c1O` [10723/A02] the same measures were 64.4% and 97.8%.
For `Cc1c(Br)ccc2c1C(=Cc1ccc(O)c(O)c1O)C(=O)N2` [10723/C02], the “PDGF Kinase %Inhibition” value in experiment [1] came out at 39.4%. Also, the “Biochem EGFR %Inhibition” value in experiment [2] is 73.6%.
With `O=C1Nc2ccc(CCCl)cc2C1=Cc1cc(O)c(O)c(Br)c1` [10723/G04], the “PDGF Kinase %Inhibition” value in experiment [1] was determined as 21.4%. Further, the “Biochem EGFR %Inhibition” value in experiment [2] is reported as 16.7%.
Turning to `CCCCN(CCCC)c1ccc(C=C2C(=O)Nc3ccc(CCCl)cc32)cc1` [10722/G10], the “PDGF Kinase %Inhibition” value in experiment [1] turned out to be 16.9%. Moreover, in experiment [2], the “Biochem EGFR %Inhibition” value amounted to 3.3%.
For `O=C1Nc2c(Br)cc(Br)cc2C1=Cc1ccccc1Br` [10723/A07] the same measures were 22.1% and 3.9%.
For `Cc1cc(C=C2C(=O)Nc3ccc(CCCl)cc32)cc(C)c1O` [10722/G07] the same measures were -3.7% and -32.5%.
The corresponding values for `CNS(=O)(=O)c1ccc2c(c1)C(=Cc1ccc(O)cc1O)C(=O)N2` [10723/D08] are 31.1% and 4.9%.
As to `Cc1c(Br)ccc2c1C(=Cc1cc(O)c(O)c(Br)c1)C(=O)N2` [10723/C04], in experiment [1], the “PDGF Kinase %Inhibition” value worked out at 36.7%. Besides, the “Biochem EGFR %Inhibition” value in experiment [2] was found to be 23.5%.
The corresponding values for `CC(=O)Oc1ccc(C=C2C(=O)Nc3ccc(Br)c(C)c32)cc1OC(C)=O` [10723/C05] are 22.8% and 35.2%.
Regarding `CC(=O)Oc1ccc(C=C2C(=O)Nc3ccc(S(=O)(=O)Nc4ccc(C(F)(F)F)cc4)cc32)cc1OC(C)=O` [10723/E05], in experiment [1], the “PDGF Kinase %Inhibition” value is -4.9%. The “Biochem EGFR %Inhibition” value in experiment [2] is recorded as -15.6%.
The corresponding values for `CNS(=O)(=O)c1ccc2c(c1)C(=Cc1cccc(Br)c1)C(=O)N2` [10723/D10] are 21.4% and -9.3%.
For `O=C1Nc2c(Br)cc(Br)cc2C1=Cc1ccc(O)cc1O` [10723/A08] the same measures were 29.7% and -2.1%.
On to `O=C1Nc2ccc(I)cc2C1=Cc1cccc(Br)c1` [10723/B10], for which the “PDGF Kinase %Inhibition” value in experiment [1] is 17.2%. Further, the “Biochem EGFR %Inhibition” value in experiment [2] was found to be 1.8%.
For `Cc1cc(C=C2C(=O)Nc3c(Br)cc(Br)cc32)ccc1O` [10723/A06] the same measures were 43.6% and 20.1%.
For `O=C1Nc2ccc(S(=O)(=O)N3CCOCC3)cc2C1=Cc1ccc(O)c(O)c1O` [10723/F02] the same measures were 1.3% and 70.4%.
For `CNS(=O)(=O)c1ccc2c(c1)C(=Cc1cccc(OC)c1O)C(=O)N2` [10723/D03] the same measures were 8.2% and 33.5%.
Regarding `CNS(=O)(=O)c1ccc2c(c1)C(=Cc1ccc(OC)cc1O)C(=O)N2` [10723/D09], the “PDGF Kinase %Inhibition” value in experiment [1] turned out to be 21.4%. Further, in experiment [2], the “Biochem EGFR %Inhibition” value was -3.8%.
The corresponding values for `CC(=O)Oc1ccc(C=C2C(=O)Nc3ccc(I)cc32)cc1OC(C)=O` [10723/B05] are 15.2% and 36.4%.
For `COc1cccc(C=C2C(=O)Nc3ccc(S(=O)(=O)N4CCOCC4)cc32)c1O` [10723/F03] the same measures were 1.3% and 9.3%.
The corresponding values for `O=C1Nc2ccc(S(=O)(=O)Nc3ccc(C(F)(F)F)cc3)cc2C1=Cc1ccccc1Br` [10723/E07] are 14.5% and 38.1%.
As for `O=C1Nc2ccc(S(=O)(=O)Nc3ccc(C(F)(F)F)cc3)cc2C1=Cc1cc(O)c(O)c(Br)c1` [10723/E04], in experiment [1], the “PDGF Kinase %Inhibition” value turned out to be 36.0%. The “Biochem EGFR %Inhibition” value in experiment [2] amounted to 59.8%.
For `O=C1Nc2ccc(CCCl)cc2C1=Cc1c(O)cc(O)cc1O` [10722/G03] the same measures were -3.7% and 4.1%.
The corresponding values for `O=C1Nc2ccc(I)cc2C1=Cc1ccc(O)c(O)c1O` [10723/B02] are 29.0% and 91.0%.
The corresponding values for `Cc1cc(C=C2C(=O)Nc3ccc(Br)c(C)c32)ccc1O` [10723/C06] are 26.3% and -4.5%.
For the compound `O=C1Nc2ccc(CCCl)cc2C1=Cc1ccccc1Br` [10723/G07], the “PDGF Kinase %Inhibition” value in experiment [1] is listed as -5.6%. Further, in experiment [2], the “Biochem EGFR %Inhibition” value was determined as 15.5%.
The corresponding values for `O=C1Nc2c(Br)cc(Br)cc2C1=Cc1cccc(Br)c1` [10723/A10] are 34.6% and -24.8%.
The corresponding values for `O=C1Nc2ccc(I)cc2C1=Cc1ccc(O)cc1O` [10723/B08] are 56.1% and -0.4%.
Regarding `O=C1Nc2ccc(CCCl)cc2C1=Cc1csc([N+](=O)[O-])c1` [10722/G09], in experiment [1], the “PDGF Kinase %Inhibition” value is given as 0.9%. Further, the “Biochem EGFR %Inhibition” value in experiment [2] was -5.9%.
For `CNS(=O)(=O)c1ccc2c(c1)C(=Cc1ccc(OC(C)=O)c(OC(C)=O)c1)C(=O)N2` [10723/D05] the same measures were 8.2% and 3.7%.
For `O=C1Nc2ccc(I)cc2C1=Cc1ccccc1Br` [10723/B07] the same measures were 24.9% and 28.8%.
For `CC(C)(C)c1cc(C=C2C(=O)Nc3ccc(S(=O)(=O)Nc4ccc(C(F)(F)F)cc4)cc32)c(O)c(C(C)(C)C)c1` [10723/E11] the same measures were 32.5% and -44.6%.
Regarding `CNS(=O)(=O)c1ccc2c(c1)C(=Cc1cc(O)c(O)c(Br)c1)C(=O)N2` [10723/D04], the “PDGF Kinase %Inhibition” value in experiment [1] came to 31.8%. For the same compound, the “Biochem EGFR %Inhibition” value in experiment [2] is 45.1%.
Regarding `O=C1Nc2c(Br)cc(Br)cc2C1=Cc1cc(O)c(O)c(Br)c1` [10723/A04], the “PDGF Kinase %Inhibition” value in experiment [1] stood at 13.1%. The “Biochem EGFR %Inhibition” value in experiment [2] was found to be 30.8%.
For `COc1cccc(C=C2C(=O)Nc3ccc(I)cc32)c1O` [10723/B03] the same measures were 14.5% and -5.0%.
For `CC(=O)Oc1ccc(C=C2C(=O)Nc3ccc(S(=O)(=O)N4CCOCC4)cc32)cc1OC(C)=O` [10723/F05] the same measures were -7.7% and -3.8%.
For `O=C1Nc2ccc(CCCl)cc2C1=Cc1ccc(C(F)(F)F)cc1` [10722/G11] the same measures were 0.3% and -39.4%.
For the compound `O=C1Nc2ccc(CCCl)cc2C1=Cc1ccc(O)cc1O` [10723/G08], the “PDGF Kinase %Inhibition” value in experiment [1] was 7.5%. For the same compound, in experiment [2], the “Biochem EGFR %Inhibition” value is recorded as 0.1%.

(Values after patent EP1247803A2, “Indolinone compounds suitable for modulation of protein kinases” (Sugen, Inc., priority 1996, dated 1998).)
